The test system of assay [1] is NPC-TW01 cells. Put plainly: Caspase inhibition assay (MTT cell survival). The following applies: pretreated 1 hour, squamostatin A for 72 hours. It counts as cell-based, human. On the procedure: For caspase inhibition experiments, cell-permeable and irreversible inhibitors of caspase-12 were added to the medium one hour before the administration of squamostatin A. Cell survival was determined using the MTT assay to evaluate the effects of the test compound on cell growth, as described previously.

In assay [2] the test system is NPC-TW01 cells. In words: Mitochondrial Ca2+ concentration (Rhod-2, flow cytometry). In kind it is cell-based, human. The following applies: 24 hours. On the procedure: (§1) The cytosolic and mitochondrial Ca^2+ concentrations were measured using fluo-3 and Rhod-2, respectively. The intensity of de-esterification of intracellular AM esters in the THF-ACGs treated or control tumor cells were measured after 30 mins of incubation. For each analysis, 10,000 events were recorded and results were analyzed using De Novo software.

For assay [3], the system named is NPC-TW01 xenograft. In words: NPC-TW01 s.c. xenograft antitumor experiment. The following applies: squamostatin A 0.5 mg/kg i.p. every three days; paclitaxel 10 mg/kg weekly. It counts as in vivo, BALB/c nude mice. On the procedure:
For the antitumor xenograft experiments, specific pathogen–free male athymic BALB/c nude mice, 6 to 8 weeks of age, were inoculated with 1 × 10^6 of exponential growth viable NPC-TW01 cells at the right flank of mice and mice were randomly divided into three groups (8 in each group). Tumor-implanted mice were treated i.p. with vehicle (5% DMSO/10% cremophor/85% saline) or 0.5 mg/kg squamostatin A every three days. Paclitaxel (10 mg/kg, once a week) was used as a positive control. Tumor size was measured every three days with a caliper, and tumor volume was calculated by the following formula: V = (1/2) × […]. At the end of the experiments, the animals were euthanized by carbon dioxide inhalation, followed by cervical dislocation. The animal experiments were supervised and approved by the Institutional Animal Care and Use Committee (IACUC) of China Medical University (Taichung, Taiwan). All animal studies were performed in accordance with the Animal Protection Act of Taiwan.

The subject of assay [4] is NPC-TW01 cells. Put plainly: Growth inhibition assay (MTT), NPC-TW01. It counts as cell-based. The following applies: Homo sapiens. On the procedure: (§2) The colorimetric assay for cellular growth and survival was performed as described by Hansen et al., with slight modifications. Pre-determinate numbers of cells were seeded in a 96-well microplate and designated compounds at various concentrations were added for the indicated time period. MTT containing solution was added after compound treatment and conversion of MTT to formazan by metabolically viable cells was measured by absorbance at 490 nm in a 96-well microtiter plate reader. The percentage of conversion by mock-treated control cells was used to evaluate the effect of the chemicals on cell growth and to determine the IC50 concentration.

Assay [5] concerns HONE-1 cells. Put plainly: Growth inhibition assay (MTT), HONE-1. In kind it is cell-based. The following applies: Homo sapiens, HONE1, treated for three generations, read-out: Growth inhibitory activity IC50, HONE-1. On the procedure:
as §2

In assay [6] the test system is FaDu cells. Put plainly: Growth inhibition assay (MTT), FaDu. The following applies: Homo sapiens, treated for three generations, read-out: Growth inhibitory activity IC50, FaDu. It counts as cell-based. Here is the method: as §2
The test system of assay [7] is Jurkat cells. In words: Growth inhibition assay (MTT), Jurkat. The following applies: Homo sapiens, treated for three generations, read-out: Growth inhibitory activity IC50, Jurkat. In kind it is cell-based. Here is the method:
as §2

Assay [8] relates to H226 cells. Put plainly: Growth inhibition assay (MTT), H226. In kind it is cell-based. The following applies: Homo sapiens, NCI-H226, treated for three generations, read-out: Growth inhibitory activity IC50, H226. Here is the method:
as §2

For assay [9], the system named is Hep 3B cells. Put plainly: Growth inhibition assay (MTT), Hep 3B. The following applies: Homo sapiens, Hep3B, treated for three generations, footnote a, read-out: Growth inhibitory activity IC50, Hep 3B. In kind it is cell-based. On the procedure:
as §2

Assay [10] relates to HT-1080 cells. In words: Growth inhibition assay (MTT), HT-1080. The following applies: Homo sapiens, treated for three generations, read-out: Growth inhibitory activity IC50, HT-1080. In kind it is cell-based. On the procedure:
as §2

The subject of assay [11] is Detroit 551 cells. In words: Growth inhibition assay (MTT), Detroit 551 normal fibroblasts. It counts as cell-based. The following applies: Homo sapiens, treated for three generations, read-out: Growth inhibitory activity IC50, Detroit 551. Here is the method:
as §2

The subject of assay [12] is TW01-R-MTX cells. Put plainly: Growth inhibition assay (MTT), methotrexate-resistant NPC-TW01. In kind it is cell-based. The following applies: Homo sapiens, drug-resistant cell line, three generations, read-out: Growth inhibitory activity IC50, TW01-R-MTX. Here is the method:
as §2

The subject of assay [13] is HONE R-MTX cells. In words: Growth inhibition assay (MTT), methotrexate-resistant HONE-1. In kind it is cell-based. The following applies: Homo sapiens, HONE1, drug-resistant cell line, three generations, read-out: Growth inhibitory activity IC50, HONE R-MTX. On the procedure:
as §2

Assay [14] relates to OECM-1 cells. Put plainly: Growth inhibition assay (MTT), OECM-1. The following applies: Homo sapiens, OECM1, Supplemental Table 1, read-out: Growth inhibitory activity IC50, OECM-1. In kind it is cell-based. On the procedure:
as §2

Assay [15] deals with SCC-15 cells. Put plainly: Growth inhibition assay (MTT), SCC-15. The following applies: Homo sapiens, Supplemental Table 1, read-out: Growth inhibitory activity IC50, SCC-15. In kind it is cell-based. On the procedure:
as §2

Assay [16] concerns SCC-25 cells. Put plainly: Growth inhibition assay (MTT), SCC-25. It counts as cell-based. The following applies: Homo sapiens, Supplemental Table 1, read-out: Growth inhibitory activity IC50, SCC-25. On the procedure:
as §2

Assay [17] deals with NPC-TW01 cells. Put plainly: Cell cycle distribution by PI staining and flow cytometry. It counts as cell-based, human. The following applies: IC50 concentration, 24 hours. On the procedure: To measure the THF-ACGs effect on the cell cycle distribution, the THF-ACGs-treated cells were collected, fixed with ice-cold alcohol, treated with RNase and stained with propidium iodide. The DNA content of each sample was evaluated by FACScan flow cytometer and ratio of cell cycle phases were determined by ModFit software (Verity Software House Inc., Topsham, ME).
Background: In flow cytometry, cells or beads pass a laser one at a time.

The test system of assay [18] is NPC-TW01 cells. In words: Annexin-V/PI apoptosis assay by flow cytometry. In kind it is cell-based, human. The following applies: IC50 concentration, 36 hours. Here is the method: THF-ACGs induced apoptotic phenomena were monitored by The Annexin V-FITC Apoptosis Detection Kit II (BD Biosciences Pharmingen) according to the manufacturer’s instructions. Briefly, THF-ACGs-treated or control cells were collected and resuspended in 400 μL 1 × binding buffer at a concentration of ~1 × 10^6 cells/ml, and 5 μL of purified recombinant Annexin V and PI reagent were added. After incubation at room temperature for 15 min in the dark, the intensity of Annexin V and PI was measured by flow cytometer immediately and results were analyzed using De Novo software (MultiCycle AV Plug-in for FCS Express).

Assay [19] has as its system NPC-TW01 cells. In words: Cytosolic Ca2+ concentration (Fluo-3, flow cytometry). In kind it is cell-based, human. The following applies: IC50 concentration, 24 hours. Here is the method:
as §1

Assay [20] deals with NPC-TW01 cells. In words: Mitochondrial membrane potential (DiOC6 staining, flow cytometry). In kind it is cell-based, human. The following applies: IC50 concentration, 24 hours. Here is the method:
To measure the change of mitochondrial potential transition (MPT), THF-ACGs treated cells were labeled with 100 nM DiOC6, harvested and suspended in PBS. The intensity of DiOC6 in cells was measured using FACScan flow cytometer.

Setting [21] is: treated for three generations, read-out: Growth inhibitory activity IC50, NPC-TW01.

Read-outs that look alike come from different tables or passages of the source. * marks the point of attachment. Cbz = O=C(OCc1ccccc1)*; CH2F = FC*

Consider five molecules from paper PMC5175284, “Mechanistic Study of Tetrahydrofuran- acetogenins In Triggering Endoplasmic Reticulum Stress Response-apotoposis in Human Nasopharyngeal Carcinoma” (Scientific Reports, 2016).

Consider Cbz-ATAD-CH2F, for which the “Effect of caspase-12 inhibitor pretreatment on squamostatin A toxicity against NPC-TW01 cell growth” value in assay [1] is recorded as “significantly block the toxicity of squamostatin A”.
As to `NCCOB(c1ccccc1)c1ccccc1` [2-APB, 2-Aminoethoxydiphenyl borate, reference compound], the “Content of mitochondrial calcium on squamostatin A treatment in the presence of 2-APB” value in assay [2] (2-APB 10 μM, squamostatin A IC50 concentration) was “diminish the content of mitochondrial calcium”.
Consider `CC(=O)O[C@H]1C(=O)[C@@]2(C)[C@H]([C@H](OC(=O)c3ccccc3)[C@]3(O)C[C@H](OC(=O)[C@H](O)[C@@H](NC(=O)c4ccccc4)c4ccccc4)C(C)=C1C3(C)C)[C@]1(OC(C)=O)CO[C@@H]1C[C@@H]2O` [paclitaxel, Paclitaxel], for which the “Overall tumor volume between weeks 6 and 13” value in [3] is “tumor continued growth slowly”.
In general, IC50 refers to the midpoint of a concentration-inhibition curve. Take `CN(Cc1cnc2nc(N)nc(N)c2n1)c1ccc(C(=O)N[C@@H](CCC(=O)O)C(=O)O)cc1` [methotrexate, reference compound]: the IC50 in [4] (setting [21]) was 0.043 µM; in [5], 0.0657 µM; in [6], 0.0921 µM; in assay [7], 0.0183 µM; in [8], 0.0398 µM; in assay [9], greater than 2 µM. The IC50 in assay [10] came out at 0.0141 µM; in [11] (footnote a), 2 µM; in [12] (footnote b), 1900 µM; in assay [13] (footnote a), 39.6 µM.
For `CCCCCCCCCCCC[C@@H](O)[C@H]1CC[C@@H]([C@@H](O)CCCCC(=O)CCCCCCCC2=C[C@H](C)OC2=O)O1` [corossolone], the IC50 is 0.0313 µM in [4] (Supplemental Table 1, read-out: Growth inhibitory activity IC50, NPC-TW01 (Supplemental Table 1)); 0.121 µM in assay [4] (setting [21]); 0.132 µM in [5]; greater than 2 µM in [6] (footnote a); 0.0003 µM in assay [7]; greater than 2 µM in assay [8] (footnote a). For the same molecule, the concentration for half-maximal inhibition (IC50) in assay [9] is greater than 2 µM; in assay [10], 0.705 µM; in assay [11], 0.354 µM; in assay [12], 0.0288 µM; in assay [13], 0.147 µM; in [14], greater than 2 µM. For the same molecule, the IC50 in [15] and in [16] was greater than 2 µM in each case. Moreover, in assay [17], the “Cell cycle distribution, G0/G1” value is 40.9%. Also, the “Cell cycle distribution, G2/M” value in assay [17] is 30.5%. For the same molecule, the “Cell cycle distribution, S” value in assay [17] is given as 28.6%. In addition, the “Annexin-V positive, E (early phase apoptosis)” value in assay [18] worked out at 4.9%. In addition, the “Annexin-V positive, L (late phase apoptosis)” value in assay [18] is 7.4%. Further, the “Ca2+ Cytosol (Fluo-3) GEO mean value, Treated” value in assay [19] worked out at 149.2. The “Ca2+ Mitochondria (Rho-2) GEO mean value, Treated” value in assay [2] (IC50 concentration) came out at 149.2. The “Increase of mitochondrial Ca2+ (Rho-2) vs Ctrl” value in [2] (IC50 concentration) is reported as 29%. Besides, the “Decrease of mitochondrial membrane potential vs Ctrl” value in assay [20] was 27%. Further, the “Mitochondrial membrane potential GEO mean value, Treated” value in [20] amounted to 777.
